In experiment [1] the target is T1, native aSyn aggregates in A30P transgenic mouse brain sections (Homo sapiens, UniProt P37840, A30P).
T1 construct: from tissue; host or cells: brain sections (midbrain and pons as ROI) of A30P transgenic mice, line B6.D2-Tg(Thy1-SNCA*30P)31Pjk
Description: aSyn in vitro displacement assay ([3H]Example-3 autoradiography). The experiment is classed as binding, mutant human aSyn gene). The conditions noted are these: 1 μM compound; 3 nM [3H]Example-3; A30P transgenic mouse brain sections; read-out: PCT_INHIB A30P @ 1 μM (% displacement of [3H]Example-3). For orientation: Loss of bound radioactivity is the signal in a displacement assay; it reports binding, not function.

In experiment [2] the target is T2, native Aβ aggregates in human AD brain tissue sections (Homo sapiens, UniProt P05067).
T2 construct: native Aβ aggregates in human AD brain tissue samples; from tissue; host or cells: human AD brain tissue sections
T2 sequence (P05067 672-713 limits assumed): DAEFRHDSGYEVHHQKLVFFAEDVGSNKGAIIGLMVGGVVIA
Description: Aβ in vitro displacement assay (selectivity counterscreen, [3H]Example 3 autoradiography). The experiment is classed as binding. The conditions noted are these: 1 μM compound; 3 nM [3H]Example 3; human AD brain sections; read-out: sel. counterscreen PCT_INHIB AD @ 1 μM (% displacement of [3H]Example 3). (The purpose of a counterscreen is to sort out artefacts and off-target activity.)

`COc1ccc(C(=O)Nc2ccc(N3CCN(c4cc(C#N)ccn4)CC3)cc2)cc1` [Example 65, N-[4-[4-(4-Cyano-2-pyridyl)piperazin-1-yl]phenyl]-4-methoxy-benzamide]: the inhibition at 1 µM in experiment [1] was found to be 100%; in experiment [2], 99%.

With `O=C(Nc1cnc(N2CCN(c3ccccn3)CC2)nc1)c1ccc(N2CCOCC2)cc1` [Example 63, 4-Morpholino-N-(2-(4-(pyridin-2-yl)piperazin-1-yl)pyrimidin-5-yl)benzamide], the inhibition at 1 µM was determined as 95% in experiment [1] and 94% in experiment [2].

For `O=C(Nc1ccc(N2CCN(c3ccccn3)CC2)cc1)c1ccc(N2CCOCC2)cc1` [Example 8, 4-Morpholino-N-(4-(4-(pyridin-2-yl)piperazin-1-yl)phenyl)benzamide], the inhibition at 1 µM was 93% in experiment [1] and 86% in experiment [2].

Turning to `O=C(Nc1ccc(N2CCN(c3ccccn3)CC2)cn1)c1ccccc1F` [Example 47, 2-Fluoro-N-(5-(4-(pyridin-2-yl)piperazin-1-yl)pyridin-2-yl)benzamide], the inhibition at 1 µM in experiment [1] is 83%; in experiment [2], 94%.

As to `COc1ccc(C(=O)Nc2ccc(N3CCN(c4ccccc4)CC3)cc2)cc1` [Example 101, 4-Methoxy-N-[4-(4-phenylpiperazin-1-yl)phenyl]benzamide], the inhibition at 1 µM was 95% in experiment [1] and 99% in experiment [2].

Turning to `CN1CCN(c2ccc(C(=O)Nc3cnc(N4CCN(c5ccccn5)CC4)cn3)cc2)CC1` [Example 87, 4-(4-Methylpiperazin-1-yl)-N-(5-(4-(pyridin-2-yl)piperazin-1-yl)pyrazin-2-yl)benzamide], the figures for the inhibition at 1 µM in experiment [1] and in experiment [2] were 88% and 98%, respectively.

Regarding `N#Cc1ccc(N2CCN(c3ccc(NC(=O)c4ccc(OCC(O)CF)cc4)cc3)CC2)cc1` (racemic) [Example 131, rac-N-(4-(4-(4-Cyanophenyl)piperazin-1-yl)phenyl)-4-(3-fluoro-2-hydroxypropoxy)benzamide], the inhibition at 1 µM is 88% in experiment [1] and 90% in experiment [2].

Consider `COc1ccc(C(=O)Nc2ccc(N3CCN(c4ccccn4)CC3)nc2)c(C)c1` [Example 19, 4-Methoxy-2-methyl-N-[6-[4-(2-pyridyl)piperazin-1-yl]-3-pyridyl]benzamide], for which the inhibition at 1 µM in experiment [1] worked out at 81%.

In the case of `Cc1ccc(C(=O)Nc2ccc(N3CCN(c4ccccn4)CC3)nc2)c(F)c1` [Example 23, 2-Fluoro-4-methyl-N-[6-[4-(2-pyridyl)piperazin-1-yl]-3-pyridyl]benzamide], the inhibition at 1 µM in experiment [1] turned out to be 82%.

As for `COc1ccc(C(=O)Nc2ccc(N3CCN(c4ccccn4)CC3)nc2)cc1` [Example 24, 4-Methoxy-N-[6-[4-(2-pyridyl)piperazin-1-yl]-3-pyridyl]benzamide], the inhibition at 1 µM in experiment [1] came out at 94%.

As to `CN1CCN(c2ccc(C(=O)Nc3ccc(N4CCN(c5nccs5)CC4)cc3)cc2)CC1` [Example 28, 4-(4-Methylpiperazin-1-yl)-N-[4-[4-(1,3-thiazol-2-yl)piperazin-1-yl]phenyl]benzamide], the inhibition at 1 µM in experiment [1] worked out at 82%.

As to `CN1CCN(c2ccc(C(=O)Nc3ccc(N4CCN(c5ccccn5)CC4)nc3)cc2)CC1` [Example 22, 4-(4-Methylpiperazin-1-yl)-N-[6-[4-(2-pyridyl)piperazin-1-yl]-3-pyridyl]benzamide], the inhibition at 1 µM in experiment [1] is 84%.

Consider `Cc1ccc(C(=O)Nc2ccc(N3CCN(c4nccs4)CC3)cc2)nc1` [Example 25, 5-Methyl-N-[4-[4-(1,3-thiazol-2-yl)piperazin-1-yl]phenyl]pyridine-2-carboxamide], for which the inhibition at 1 µM in experiment [1] came out at 83%.

As for `O=C(Nc1ccc(N2CCN(c3nccs3)CC2)cc1)c1ccc(N2CCOCC2)cc1` [Example 26, 4-Morpholin-4-yl-N-[4-[4-(1,3-thiazol-2-yl)piperazin-1-yl]phenyl]benzamide], the inhibition at 1 µM in experiment [1] stood at 93%.

As to `Cc1ccc(C(=O)Nc2ccc(N3CCN(c4nccs4)CC3)cc2)cc1` [Example 27, 4-Methyl-N-[4-[4-(1,3-thiazol-2-yl)piperazin-1-yl]phenyl]benzamide], the inhibition at 1 µM in experiment [1] worked out at 89%.
